Measurements from article PMC12867150, “A fungi-derived cyclic peptide enhances Th9-mediated antitumor immunity by targeting ZAP70 and SREBP1” (The Journal of Clinical Investigation, 2025).

Tested on: B16-OVA melanoma
Experiment: Adoptive transfer of OT-II Th9 cells, B16-OVA tumor growth in β2m-KO mice (Figure 2H)
Format: in vivo
Settings: result in words
Text: (A) Schematic of the therapeutic model. C57BL/6 mice were subcutaneously inoculated with B16-OVA melanoma cells (5 × 10^5) and preconditioned with cyclophosphamide (CTX) on day 4. […] (B–G) Flow-cytometric analysis of transferred CD45.1^+ OT-II Th9 cells (B and C) and endogenous CD4^+ (D and E) and CD8^+ T cells (F and G) in spleens and tumors, showing frequencies and absolute numbers (n = 4 mice per group). (H) Tumor growth curves in B16-OVA–bearing C57BL/6 or β2-microglobulin–deficient (β2m-KO) mice following transfer of control or EpA-treated OT-II Th9 cells (n = 4 mice per group). (I) C57BL/6 mice bearing B16-OVA tumors were treated with control or EpA-induced OT-II Th9 cells (2 × 10^6, i.v., day 5), followed by anti–PD-1 antibody (200 μg, i.p.) on day 7, and (100 μg, i.p.) on day 10 and 12. Tumor growth is shown with individual trajectories (n = 6 mice per group). Statistical analysis was performed using 2-tailed unpaired Student’s t test ([…], B–G) or 1-way ANOVA with Tukey’s post hoc test (H and I). All data are presented as the mean ± SEM. *P < 0.05, **P < 0.01, ***P < 0.001. Schematic in A created using BioRender (https://Biorender.com).
To directly assess the requirement for endogenous CD8^+ T cells, we utilized β2-microglobulin–deficient (β2m-KO) mice, which lack functional MHC class I and are therefore devoid of CD8^+ T cells ([32]). […]

Substance: anteiso-C15 Leu7 surfactin [EpA]
- enhanced antitumor efficacy in β2m-KO hosts: completely abolished
